This is an account of results in US7094869B2, “Low molecular weight peptidomimetic growth hormone secretagogues” (Genentech, Inc., priority 1994, dated 2006).

Usually pEC50 stands for −log10 of the EC50, conventionally taken in molar units.

pEC50: −log10 of the molar value. Non-standard residues stand in square brackets, D forms with d. Residues, ends and D or L forms follow the SMILES beside them. *: point of attachment. Tyr(3-I) = N[C@@H](Cc1ccc(O)c(I)c1)C(=O)O; dNMe2Nal = CN[C@H](Cc1ccc2ccccc2c1)C(=O)O; 2Nal = N[C@@H](Cc1ccc2ccccc2c1)C(=O)O; d2Nal = N[C@H](Cc1ccc2ccccc2c1)C(=O)O; d(hPhe) = N[C@H](CCc1ccccc1)C(=O)O; dPhg = N[C@@H](C(=O)O)c1ccccc1; NHPhenethyl = c1ccc(CCN*)cc1; dNle = CCCC[C@@H](N)C(=O)O; dOrn = NCCC[C@@H](N)C(=O)O; Ac6c = NC1(C(=O)O)CCCCC1; Inp = O=C(O)C1CCNCC1; Ava = NCCCCC(=O)O Bounds are passed on as bounds.

rat pituitary cells, sequence (O08725 whole entry, the tested form may be a part): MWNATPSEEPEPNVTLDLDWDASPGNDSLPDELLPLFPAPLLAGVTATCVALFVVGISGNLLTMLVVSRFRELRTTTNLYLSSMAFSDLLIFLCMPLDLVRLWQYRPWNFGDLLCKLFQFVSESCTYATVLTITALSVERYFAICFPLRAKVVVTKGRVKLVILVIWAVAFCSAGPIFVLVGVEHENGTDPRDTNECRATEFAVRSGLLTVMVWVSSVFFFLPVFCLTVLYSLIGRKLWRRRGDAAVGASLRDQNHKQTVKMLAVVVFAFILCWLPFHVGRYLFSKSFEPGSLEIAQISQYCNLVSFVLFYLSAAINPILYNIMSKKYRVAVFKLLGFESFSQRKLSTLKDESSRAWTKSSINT

The first experiment addresses rat pituitary cells (Rattus norvegicus, UniProt O08725). The note with it: read-out: PIT Cell EC50; Table III, formula IV compounds; GH release, 15 min incubation. As to the method: Pituitaries from ten rats were removed, the posterior pituitary discarded and the anterior pituitary placed in Hanks' Balanced Salt Solution (HBSS: without calcium chloride, w/o magnesium chloride, w/o magnesium sulfate; Gibco) containing 20 mM HEPES (Gibco) and 100 U/ml penicillin streptomycin (PS: JRH Biosciences). Under sterile conditions, pituitaries were rinsed twice then minced into small fragments with a razor blade. […] After the incubation, fragments were triturated to yield small clumps and single cells. The cells were centrifuged 1000× g for 5 min, resuspended, counted and plated at a final cell concentration of 100,000 cells/ml. Incubation media was DME low glucose media w/NaHCO3 (Gibco) containing 20 mM hepes, 100 U/ml PS and 10% FBS (Hyclone A-111-L). Cells were plated at 0.5 ml per well in 48 well plates (Falcon) and incubated at 37° C. in 5% C02 for three days. For challenges to determine release of other pituitary hormones cells were plated at 200,000 cells per ml with 2 ml per well of a Swell plate (Corning). Challenge: A (inip)bbFK-NH2 stock (or other GHRP) concentration of 1 mM was made in DMSO and diluted with warmed media approximately 30 min prior to use. The highest concentration of DMSO in media was 0.1%. Stock solutions (1 mM) of rat GHRH, somatostatin (Sigma) and GHRP antagonist HwkWfK were made fresh in media and diluted appropriately. The media used in all challenges and washing steps was DME low glucose with 20 mM Hepes, 100 U/ml PS, 10% FBS. Media was warmed to 37° C. and gassed by placing it into the incubator prior to challenge. On day three, the media was discarded and fresh media (approximately 1 ml) added for the first of three washes. After the last wash, the plate was placed back in the incubator for a 15 min pre-incubation. Then cells were washed 2× (with warmed and gassed media) and fresh 0.5 ml media were added for the second 15 min. pre-incubation. After the second pre-incubation cells were washed 2× as above and 0.5 ml of control and test solutions were added for a final 15 min incubation. After this incubation, the media were removed for subsequent GH ELISA. GH ELISA: A two-site ELISA was used to determine rat GH concentration in the media. […] After blocking and washing, standard (rat GH reference preparation: Parlow) and challenge media is diluted 1:20 prior to GH assay were added for a 1 hr room temperature incubation. STATISTICS: The mean for each group was determined and analyzed by one-way analysis of variance with a post-hoc Student-Newman-Keuls. Significance is defined as P<0.05. The EC50 was calculated using a 4-parameter curve-fit program (Kaleidagraph). Three to four independent EC50s were used to derive the mean and SEM. RIA of pituitary hormones: LH, FSH, TSH, and Prolactin were determined with commercially available kits from Amersham, and ACTH levels were determined by a RIA kit from ICN. CALCIUM FLUX EXPERIMENT: Pituitary cells were plated on fibronectin (Collaborative Research) coated two-chambered slide wells (Nunc). After four days in monolayer culture cells were rinsed three times with HBSS (Gibco) in 1% BSA and 15 mM HEPES and then incubated for 30 min at 37° C. with 5 μM Indo-1 AM (Molecular Probes, Eugene) in HBSS also containing 1% pluronic F127 (Molecular Probes). The cells were rinsed once and fresh media added for RT incubation. […] C^++ flux was imaged with a Meridian ACAS 570 using stage scanning at 21 second intervals.
`CN(C)C(=O)C(Cc1ccccc1)NC(=O)[C@@H](Cc1ccc2ccccc2c1)NC(=O)[C@@H](Cc1ccc2ccccc2c1)NC(=O)C1CCNCC1` (single isomer, unassigned) [(inip) b b f dam]: the pEC50 is 7.92.
The same measure, in the same setting: the value for `C[C@@H](NC(=O)CCCCN)C(=O)N[C@H](Cc1ccc2ccccc2c1)C(=O)N[C@@H](Cc1ccccc1)C(=O)N[C@@H](CCCCN)C(N)=O` [(Ava) a b F K amide] (H-[Ava][dA][d2Nal]FK-NH2) was below 6.52.
The same measure, in the same setting: then `C[C@@H](NC(=O)[C@@H](Cc1ccc2ccccc2c1)NC(=O)CCCCN)C(=O)N[C@@H](Cc1ccccc1)C(=O)N[C@@H](CCCCN)C(N)=O` [(Ava) b a F K amide] (H-[Ava][d2Nal][dA]FK-NH2), with below 6.52.
Turning to `NCCCCC(=O)N[C@H](Cc1ccc2ccccc2c1)C(=O)N[C@H](Cc1ccc2ccccc2c1)C(=O)N[C@@H](C(=O)N[C@@H](CCCCN)C(N)=O)c1ccccc1` [(Ava) b b (pG) K amide] (H-[Ava][d2Nal][d2Nal][dPhg]K-NH2), the pEC50 is below 7.00.
Same read-out and setting: then `C[C@H](NC(=O)[C@@H](Cc1ccc2ccccc2c1)NC(=O)[C@@H](Cc1ccc2ccccc2c1)NC(=O)CCCCN)C(=O)N[C@@H](CCCCN)C(N)=O` [(Ava) b b A K amide] (H-[Ava][d2Nal][d2Nal]AK-NH2), with below 6.82; and `NCCCC[C@H](NC(=O)[C@H](Cc1ccccc1)NC(=O)[C@@H](Cc1ccc2ccccc2c1)NC(=O)[C@@H](Cc1ccc2ccccc2c1)NC(=O)C1CCNCC1)C(=O)N[C@@H](Cc1ccc(O)c(I)c1)C(N)=O` [(inip) b b F K Y(I) amide] (H-[Inp][d2Nal][d2Nal]FK[Tyr(3-I)]-NH2), with 9.16.
Still for that read-out and setting: then `NCCCC[C@H](NC(=O)[C@H](Cc1ccc(O)cc1)NC(=O)[C@@H](Cc1ccc2ccccc2c1)NC(=O)[C@@H](Cc1ccc2ccccc2c1)NC(=O)C1CCNCC1)C(N)=O` [(inip) b b Y K amide] (H-[Inp][d2Nal][d2Nal]YK-NH2), with 9.70; and `CNC(=O)[C@@H](Cc1ccccc1)NC(=O)[C@@H](Cc1ccc2ccccc2c1)NC(=O)[C@@H](Cc1ccc2ccccc2c1)NC(=O)C1CCNCC1` [(inip) b b f mam] (H-[Inp][d2Nal][d2Nal][dF]-NHMe), with 8.15.
On the same count and under the same terms, then `CN(C)C(=O)[C@H](Cc1ccccc1)NC(=O)[C@@H](Cc1ccc2ccccc2c1)NC(=O)[C@@H](Cc1ccc2ccccc2c1)N(C)C(=O)C1CCNCC1` [(inip) nmb b F dam] (H-[Inp][dNMe2Nal][d2Nal]F-NMe2), with 8.22.

The same experiment, now with this note: read-out: PIT Cell EC50; Table IV, formula III compounds; GH release, 15 min incubation.
As for `NCCCCC(=O)N[C@H](Cc1ccc2ccccc2c1)C(=O)N[C@@H](Cc1ccccc1)C(=O)N[C@@H](CCCCN)C(N)=O` [(Ava) b F K amide] (H-[Ava][d2Nal]FK-NH2), the negative logarithm of the EC50 (pEC50) is below 6.52.
As for `NCCCCC(=O)N[C@H](Cc1ccc2ccccc2c1)C(=O)N[C@H](Cc1ccc2ccccc2c1)C(=O)NCCc1ccccc1` [(Ava) b b fem] (H-[Ava]-[d2Nal]-[d2Nal]-NHPhenethyl), the pEC50 was below 6.70.
On the same count and under the same terms, the value for `NC(=O)[C@H](Cc1ccccc1)NC(=O)C1(NC(=O)[C@@H](Cc2ccc3ccccc3c2)NC(=O)C2CCNCC2)CCCCC1` [(inip) b Abx F amide] (H-[Inp][d2Nal][Ac6c]F-NH2) was below 7.00; that for `O=C(N[C@H](Cc1ccc2ccccc2c1)C(=O)N[C@H](Cc1ccc2ccccc2c1)C(=O)N[C@@H](Cc1ccc(O)c(I)c1)C(=O)O)C1CCNCC1` [(inip) b b Y(I) acid, (inip)-DβNal-DβNal-(3-I-Tyr)] (H-[Inp][d2Nal][d2Nal][Tyr(3-I)]-OH) was 10.00; that for `NC1CCN(C(=O)[C@@H](Cc2ccc3ccccc3c2)NC(=O)[C@@H](Cc2ccc3ccccc3c2)NC(=O)C2CCNCC2)CC1` [(inip) b b apc] was 7.41.
The same measure, in the same setting: the value for `O=C(N[C@H](Cc1ccc2ccccc2c1)C(=O)N[C@H](Cc1ccc2ccccc2c1)C(=O)NCCc1ccccc1)C1CCNCC1` [(inip) b b fem, (inip)-DβNal-DβNal-(N-2-phenylethyl) amide] (H-[Inp]-[d2Nal]-[d2Nal]-NHPhenethyl) was 8.69.
The same measure, in the same setting: then `NCCC[C@@H](NC(=O)[C@@H](Cc1ccc2ccccc2c1)NC(=O)[C@@H](Cc1ccc2ccccc2c1)NC(=O)C1CCNCC1)C(N)=O` [(inip) b b o amide] (H-[Inp][d2Nal][d2Nal][dOrn]-NH2), with 8.00.
Turning to `NCCCCCNC(=O)[C@@H](Cc1ccc2ccccc2c1)NC(=O)[C@@H](Cc1ccc2ccccc2c1)NC(=O)C1CCNCC1` [(inip) b b pam], the pEC50 was 7.37.
On the same count and under the same terms, then `NC(=O)[C@H](Cc1ccccc1)NC(=O)[C@@H](Cc1ccccc1)NC(=O)[C@@H](Cc1ccc2ccccc2c1)NC(=O)C1CCNCC1` [(inip) b f F amide] (H-[Inp][d2Nal][dF]F-NH2), with 7.10; and `CCCC[C@@H](NC(=O)[C@@H](Cc1ccc2ccccc2c1)NC(=O)C1CCNCC1)C(=O)N[C@@H](Cc1ccccc1)C(N)=O` [(inip) b nl F amide] (H-[Inp][d2Nal][dNle]F-NH2), with 7.14; and `NC(=O)[C@H](Cc1ccccc1)NC(=O)[C@@H](Cc1ccc2ccccc2c1)NC(=O)[C@@H](CCc1ccccc1)NC(=O)C1CCNCC1` [(inip) hf b F amide] (H-[Inp][d(hPhe)][d2Nal]F-NH2), with 7.57.
Same read-out and setting: the value for `NC(=O)[C@H](Cc1ccccc1)NC(=O)[C@@H](CCc1ccccc1)NC(=O)[C@@H](CCc1ccccc1)NC(=O)C1CCNCC1` [(inip) hf hf F amide] (H-[Inp][d(hPhe)][d(hPhe)]F-NH2) was below 6.00; that for `CCCC[C@@H](NC(=O)C1CCNCC1)C(=O)N[C@H](Cc1ccc2ccccc2c1)C(=O)N[C@@H](Cc1ccccc1)C(N)=O` [(inip) nl b F amide] (H-[Inp][dNle][d2Nal]F-NH2) was 7.00.

The same experiment, now with this note: read-out: PIT Cell EC50; Table V, formula II compounds; GH release, 15 min incubation.
As for `NCCCCC(=O)N[C@H](Cc1ccc2ccccc2c1)C(=O)N[C@@H](CO)Cc1ccc2ccccc2c1` [(Ava) b bol], the pEC50 is 6.72.
On the same count and under the same terms, the value for `O=C(N[C@H](Cc1ccc2ccccc2c1)C(=O)N[C@H](CO)Cc1ccc2ccccc2c1)C1CCNCC1` [(inip) b Bol] was 7.00.
The same measure, in the same setting: then `O=C(N[C@H](Cc1ccc2ccccc2c1)C(=O)N[C@H](Cc1ccc2ccccc2c1)C(=O)O)C1CCNCC1` [(inip) b b acid] (H-[Inp]-[d2Nal]-[d2Nal]-OH), with 7.09.
The same measure, in the same setting: the value for `NC(=O)[C@@H](Cc1ccc2ccccc2c1)NC(=O)[C@@H](Cc1ccc2ccccc2c1)NC(=O)C1CCNCC1` [(inip) b b amide] (H-[Inp]-[d2Nal]-[d2Nal]-NH2) was 7.75; that for `CC(=O)NC[C@@H](Cc1ccc2ccccc2c1)N(C)C(=O)[C@@H](Cc1ccc2ccccc2c1)NC(=O)C1CCNCC1` [(inip) b mbm Ac] was 7.05; that for `CN(C(=O)[C@@H](Cc1ccc2ccccc2c1)NC(=O)C1CCNCC1)[C@@H](CN=[N+]=[N-])Cc1ccc2ccccc2c1` [(inip) b miz] was 7.92.

Staying with this experiment, now noted: read-out: PIT Cell EC50; Table VI, retroinverso compounds of formula V; GH release, 15 min incubation.
In the case of `NCCCCC(=O)N[C@H](Cc1ccccc1)C(=O)N[C@@H](Cc1ccc2ccccc2c1)C(=O)N[C@@H](Cc1ccc2ccccc2c1)C(=O)N[C@@H](CCCCN)C(N)=O` [(Ava) f B B K amide, (5-Aminovaleryl)-DPhe-βNal-βNal-Lys-amide] (H-[Ava][dF][2Nal][2Nal]K-NH2), the negative-log EC50 (pEC50) was 7.44.
Regarding `O=C(N[C@@H](Cc1ccc2ccccc2c1)C(=O)N[C@@H](Cc1ccc2ccccc2c1)C(=O)NC1CCNCC1)C1CCNCC1` [(inip) B B api], the negative logarithm of the EC50 (pEC50) is 7.02.

Still in this experiment, the particulars now being: read-out: mean EC50; mean ± SE of independent EC50s.
With `NCCCNC(=O)[C@H](Cc1ccc2ccccc2c1)NC(=O)[C@H](Cc1ccc2ccccc2c1)NC(=O)[C@@H](Cc1ccc2ccccc2c1)NC(=O)CCCN` [(Ab) b B B ram], the pEC50 is 8.70.
